Earlier results in patent US10093983B2 (priority 2011, dated 2018).

Molecular target: T1, D351Y or D351E mutant ESR1 (Homo sapiens, UniProt P03372, D351Y)
T1 sequence (P03372 1-595 D351Y): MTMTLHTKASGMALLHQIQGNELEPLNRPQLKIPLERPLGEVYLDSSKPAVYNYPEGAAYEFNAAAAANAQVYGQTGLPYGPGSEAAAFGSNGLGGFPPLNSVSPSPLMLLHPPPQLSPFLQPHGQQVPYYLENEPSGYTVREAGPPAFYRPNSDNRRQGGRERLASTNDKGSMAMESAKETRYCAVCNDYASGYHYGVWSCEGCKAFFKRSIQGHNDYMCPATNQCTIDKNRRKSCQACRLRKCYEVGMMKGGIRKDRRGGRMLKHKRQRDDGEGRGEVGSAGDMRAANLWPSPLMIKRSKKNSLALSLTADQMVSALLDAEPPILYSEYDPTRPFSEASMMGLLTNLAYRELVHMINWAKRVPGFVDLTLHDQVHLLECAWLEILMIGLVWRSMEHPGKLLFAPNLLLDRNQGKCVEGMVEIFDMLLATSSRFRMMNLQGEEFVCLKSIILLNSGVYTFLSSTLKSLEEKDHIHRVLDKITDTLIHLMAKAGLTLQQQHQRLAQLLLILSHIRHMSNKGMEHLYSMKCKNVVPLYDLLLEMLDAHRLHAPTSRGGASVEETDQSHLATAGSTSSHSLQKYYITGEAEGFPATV

effects of the antiestrogen upon mutating D351 to tyrosine: unaffected
SMILES: C[C@]12CC[C@@H]3c4ccc(O)cc4C[C@@H](CCCCCCCCC[S+]([O-])CCCC(F)(F)C(F)(F)F)[C@H]3[C@@H]1CC[C@@H]2O (stereo partly shown) [fulvestrant]
